In US20130011845A1, “MICRORNA REGULATING THE INSULIN SIGNALING PATHWAY, AND METHOD FOR SCREENING MATERIAL FOR CONTROLLING THE ACTION OF A TARGET THEREOF” (SNU R & DB Foundation, priority 2009, published 2013):

How the values were obtained:
TCF7L1 3′UTR = experiment: dual-luciferase 3′UTR reporter assay, pAC-TCF7L1; type: cell-based; conditions: luciferase reporter with TCF7L1 3′UTR, human Hela cell lines; average of at least two independent experiments
Method: (§1) In order to determine whether the target genes identified in Example 7 are in actuality targets of miR-8 and miR-200 family miRNAs, the inventors performed cloning. In other words, […] containing the miRNA target sites. Specifically, in order to obtain cDNAs of respective target genes, from drosophila S2 cell lines or human Hela cell lines, total RNA was extracted by using RNeasy mini kit (QIAGEN, US). 1 μg of total RNA and 1 μl of Oligo-dT (Invitrogen, US) were charged with up to 50 μl of distilled water, and placed into SuperScript First-Strand Synthesis System (Invitrogen, US), followed by RT-PCR reaction. Through the reaction at 65° C. for 6 min, at 4° C. for 5 min, at 42° C. for 60 min, at 95° C. for 5 min, and at 4° C. for 5 min, cDNA was synthesized. By using the cDNA (3˜5 μg) as template, and using a primer pair on respective genes noted in Table 3 and PCR Mastermix (Promega, US), PCR was performed on 3′UTR of ush, Lap1, CG8445, dbo, Lar, Ced-12, CG12333, cbt, FOG2, SEPT7, RIN2, SHC1, HOXB5, LF11, TCF7L1, ERBB21P, ELMO2, BAP1, WDR37, KLHL20, PTPRD, RASSF2 and VAC14 from among the target genes selected in Example 7. Herein, PCRP on atro as a drosophila control gene was also performed. After the reaction was completed, the PCR product on each gene's 3′UTR region was cleaved by each of the following restriction enzymes:
(§2) Then, it was cloned into pAC5.1 luciferase vector (a kind gift of Elisa Izaurralde) cleaved by the same restriction enzymes so as to produce a reporter plasmid having a miR-8 or miR-200 family target sequence in luciferase gene's 3′UTR sequence.
(§3) Reporter plasmids and renilla luciferase expression vectors (Promega, US), as noted in Table 4, and miRNAs of miR-200 family of miR-141, miR-200a (hsa-miR-200a, SEQ ID: 87: 5′-[…]-3′), miR-200b, miR-200c (has-miR-200c, SEQ ID: 88: 5′-[…]-3′) and miR-429, and miR-8 (dme-miR-8, SEQ ID: 89: 5′-[…]-3′) were bought from Samchonri and cotransfected into drosophila S2 cell lines or human Hela cell lines. Then, the activities of luciferase were measured through dual-luciferase assay (Promega, US) by a luminometer (Biorad). Then, 7 gene pairs that respond both to miR-8 and to mir-200 family miRNAs in Drosophila and human cells, respectively were identified (see FIG. 15).

FOXO = FOXO luciferase reporter (pFK1tk-luc) assay in Hep3B cells; type: cell-based, human
Text: The inventors analyzed the effect of miR-200 miRNAs on the downstream transducers of Akt (see FIGS. 44 to 47). Because Akt represses FOXO activity, the inventors used a luciferase reporter plasmid (pFK1tk-luc) (Biggs, W H et al., 1999, Proc Natl Acad Sci USA 96, 7421-7426) containing eight FOXO-binding sites to determine the level of FOXO activity in cultured cells. Specifically, Hep3B cells were transfected with synthesized siGFP, miR-141, miR-200a, miR-200b, miR-200c, miR-429 or siFOG2 together with pFK1tk-luc vector, and then luciferase activity was measured in the same manner as described Example 8-2. Also, Hep3B cells were transfected with luciferase, or oligonucleotides having complementary sequence to miR-141, miR-200a, miR-200b, miR-200c or miR-429 together with pFK1tk-luc vector. Then, the luciferase activity was measured in the same manner as described above. Further, Hep3B cell lines were transfected with pCK-flag (empty vector) and pCK-FOG2 produced in Example 16-1, and the luciferase activity was measured in the same manner as described above. […] Further, treating the cells with miR-200 inhibitors elevated FOXO activity (see FIG. 46).

ERBB2IP 3′UTR = experiment: dual-luciferase 3′UTR reporter assay, pAC-ERBB2IP; type: cell-based; conditions: luciferase reporter with ERBB2IP 3′UTR, human Hela cell lines; average of at least two independent experiments
Method: as §1, §2, §3

VAC14 3′UTR = experiment: dual-luciferase 3′UTR reporter assay, pAC-VAC14; type: cell-based; conditions: luciferase reporter with VAC14 3′UTR, human Hela cell lines; average of at least two independent experiments
Method: as §1, §2, §3

KLHL20 3′UTR = experiment: dual-luciferase 3′UTR reporter assay, pAC-KLHL20; type: cell-based; conditions: luciferase reporter with KLHL20 3′UTR, human Hela cell lines; average of at least two independent experiments
Method: as §1, §2, §3

SEPT7 3′UTR = experiment: dual-luciferase 3′UTR reporter assay, pAC-SEPT7; type: cell-based; conditions: luciferase reporter with SEPT7 3′UTR, human Hela cell lines; average of at least two independent experiments
Method: as §1, §2, §3

HOXB5 3′UTR = experiment: dual-luciferase 3′UTR reporter assay, pAC-HOXB5; type: cell-based; conditions: luciferase reporter with HOXB5 3′UTR, human Hela cell lines; average of at least two independent experiments
Method: as §1, §2, §3

FOG2 3′UTR = experiment: dual-luciferase 3′UTR reporter assay, pAC-FOG2; type: cell-based; conditions: luciferase reporter with FOG2 3′UTR, human Hela cell lines; average of at least two independent experiments
Method: as §1, §2, §3

SHC1 3′UTR = experiment: dual-luciferase 3′UTR reporter assay, pAC-SHC1; type: cell-based; conditions: luciferase reporter with SHC1 3′UTR, human Hela cell lines; average of at least two independent experiments
Method: as §1, §2, §3

Hep3B cells = experiment: MTT cellular viability assay; type: cell-based, human; conditions: Hep3B cells transfected with 30 nM
Method: Because stimulation of PI3K and Akt is known to facilitate cell proliferation and antagonize apoptosis (Pollak, 2008), the inventors measured cellular viability with the MTT (3-(4,5-dimethylthiazol-2-yl)-2,5-diphenyltetrazolium bromide) assay in Hep3B cells. Specifically, Hep3B cells were plated in a 96-well plate, and transfected with 30 nM of synthesized siGFP, miR-141, miR-200a, miR-200b, miR-200c, miR-429 or siFOG2. Then, to the plate, 50 μl of MTT solution (2 mg/ml) (Promega, US) was added per each well, followed by culturing at 37 °C for 1 hour. Then, each well was added with 150 μl of DMSO, and measured by a microplate reader (Bio-rad, US) at a wavelength of 590 nm. Also, Hep3B cells were transfected with 200 nM of luciferase, or 200 nM of oligonucleotides having complementary sequences to miR-141, miR-200a, miR-200b, miR-200c or miR-429, and then were subjected to MTT assay in the same manner as described above.

Substance | Represion fold, TCF7L1 (TCF7L1 3′UTR) | FOXO activity (activity of luciferase, pFK1tk-luc) (FOXO) | Represion fold, ERBB2IP (ERBB2IP 3′UTR) | Represion fold, VAC14 (VAC14 3′UTR) | Represion fold, KLHL20 (KLHL20 3′UTR) | Represion fold, SEPT7 (SEPT7 3′UTR) | Represion fold, HOXB5 (HOXB5 3′UTR) | Represion fold, FOG2 (FOG2 3′UTR) | Represion fold, SHC1 (SHC1 3′UTR) | cell viability (MTT) (Hep3B cells)
5′-UAAUACUGCCUGGUAAUGAUGA-3′ (listed as RNA, chemistry not given here) [miR-200b] | 0.81 fold | significantly repressed | 0.57 fold | 1.20 fold | 0.85 fold | 0.95 fold | 0.73 fold | 0.37 fold | 1.41 fold | increased cell viability
5′-UAACACUGUCUGGUAAAGAUGG-3′ (listed as RNA, chemistry not given here) [miR-141] | 0.91 fold | significantly repressed | 0.7 fold | 0.99 fold | 0.84 fold | 1.00 fold | 0.92 fold | 0.59 fold | 1.64 fold | increased cell viability
5′-UAAUACUGUCUGGUAAAACCGU-3′ (listed as RNA, chemistry not given here) [miR-429] | 0.71 fold | significantly repressed | 0.54 fold | 1.17 fold | 0.55 fold | 1.14 fold | 0.72 fold | 0.47 fold | 2.17 fold | increased cell viability
5′-UAACACUGUCUGGUAACGAUGU-3′ (listed as RNA, chemistry not given here) [miR-200a] | 1.17 fold | significantly repressed | 1.18 fold | 1.19 fold | 1.02 fold | 0.97 fold | 1.16 fold | 0.64 fold | 1.63 fold | increased cell viability
